From US12491185B2, “Inhibitors of mPTP” (NRG Therapeutics Ltd, priority 2023, dated 2025)

What was measured:
mPTP [1] = test: mPTP activity (Ca2+ retention) assay in isolated rat liver mitochondria; format: biochemical; settings: examples tested by different contract research organisations, believed comparable
Summary of the method: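 pIC50 was taken from Fluo5N fluorescence at 10 min after a 75 μM CaCl2 bolus, scaled between DMSO (0%) and 5 μM cyclosporin A (100%). Compounds, ten half-log concentrations from 30 μM to 1 nM final, sat 10 min at RT with fresh female Sprague Dawley rat liver mitochondria energized by succinate plus rotenone.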

mPTP [2] = test: mPTP activity assay in isolated rat brain mitochondria; format: biochemical; settings: for mPTP Rat brain pIC50: fluorescence at 10 min timepoint
Summary of the method: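 Fresh brain mitochondria from female Sprague Dawley rats, digitonin-washed, in pH 7.4 mannitol/MOPS/KCl buffer with pyruvate, malate, ADP, oligomycin A and 2 μM Fluo5N. Preincubated with compounds 10 min at RT. Fluo5N fluorescence then read every 3 sec for 10 min on FLIPR Tetra.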

SMILES | mPTP Rat liver pIC50 (mPTP [1]) | mPTP Rat brain pIC50 (mPTP [2]) | mPTP rat brain mitochondria pIC50 (mPTP [2]; Fluo5N fluorescence at 10 min after 75 μM Ca2+)
Cn1nc(C(=O)NC[C@H](Cc2ccc(F)cc2F)CC(F)(F)F)[nH]c1=O [Example 245, (R)-N-(2-(2,4-difluorobenzyl)-4,4,4-trifluorobutyl)-1-methyl-5-oxo-4,5-dihydro-1H-1,2,4-triazole-3-carboxamide] | 6.13 | 7.44 | –
CC(C)(CNC(=O)c1cncc(O)n1)Cc1ccccc1 [Example 12, N-(2,2-dimethyl-3-phenylpropyl)-6-hydroxypyrazine-2-carboxamide] | 5.70 | 7.08 | –
O=C(NCC1(Cc2ccccc2)CC(F)(F)C1)c1cncc(=O)[nH]1 [Example 48, N-((1-benzyl-3,3-difluorocyclobutyl)methyl)-6-oxo-1,6-dihydropyrazine-2-carboxamide] | 4.56 | 5.99 | –
Cn1nc(C(=O)NC(C(F)(F)F)C(C)(C)Cc2ccccc2)[nH]c1=O (centres unmarked) [Example 35, 1-methyl-5-oxo-N-(1,1,1-trifluoro-3,3-dimethyl-4-phenylbutan-2-yl)-4,5-dihydro-1H-1,2,4-triazole-3-carboxamide] | 5.23 | 6.86 | –
O=C(NCC1(Cc2ccccc2)CCC1)c1cncc(O)c1 [Example 1, N-((1-benzylcyclobutyl)methyl)-5-hydroxynicotinamide] | 6.10 | 7.27 | –
Cn1nc(C(=O)NCC2(Cc3ccc(F)c(F)c3)CCC2)[nH]c1=O [Example 142, N-((1-(3,4-difluorobenzyl)cyclobutyl)methyl)-1-methyl-5-oxo-4,5-dihydro-1H-1,2,4-triazole-3-carboxamide] | 7.04 | 7.42 | –
Cc1n[nH]c(C(=O)NCC2(Cc3ccccc3)CCC2)n1 [Example 64, N-((1-benzylcyclobutyl)methyl)-3-methyl-1H-1,2,4-triazole-5-carboxamide] | <4.52 | 4.64 | –
CC(NC(=O)c1nn(C)c(=O)[nH]1)C1(Cc2ccccc2)CCC1 (centres unmarked) [Example 23, N-(1-(1-benzylcyclobutyl)ethyl)-1-methyl-5-oxo-4,5-dihydro-1H-1,2,4-triazole-3 carboxamide] | 6.64 | 7.37 | –
Cn1nc(C(=O)NC[C@@H](Cc2ccc(F)cc2Cl)C2CC2)[nH]c1=O [Example 242] | 4.95 | 5.39 | –
Cc1ccccc1CC1(CNC(=O)c2nn(C)c(=O)[nH]2)CCC1 [Example 29, 1-methyl-N-((1-(2-methylbenzyl)cyclobutyl)methyl)-5-oxo-4,5-dihydro-1H-1,2,4-triazole-3-carboxamide] | 6.34 | 7.84 | –
O=C(NC[C@H](Cc1cc(F)ccc1F)C1CC1)c1noc(=O)[nH]1 [Example 207] | 6.12 | 7.65 | –
Cn1nc(C(=O)NCC2(Cc3ccccc3)CCC2)[nH]c1=O [Example 10, N-((1-benzylcyclobutyl)methyl)-1-methyl-5-oxo-4,5-dihydro-1H-1,2,4-triazole-3-carboxamide] | 6.58 | 7.42 | –
C[C@@](CNC(=O)c1ncc(Cl)c(=O)[nH]1)(Cc1ccc(F)cc1F)C1CC1 [Example 259, 5-chloro-N-[(2R)-2-cyclopropyl-3-(2,4-difluorophenyl)-2-methylpropyl]-4-oxo-3H-pyrimidine-2-carboxamide] | 6.46 | 8.22 | –
O=C(NCC1(Cc2ccc(F)cc2F)CC(F)C1)c1nccc(=O)[nH]1 (single isomer, unassigned) [Example 248] | 6.16 | 7.05 | –
O=C(NCC1(Cc2ccc(F)cc2F)CCC1)c1c[nH]c(=O)cn1 [Example 132] | 6.08 | 7.31 | –
CCC(F)(CNC(=O)c1nccc(=O)[nH]1)Cc1ccc(F)cc1F (single isomer, unassigned) [Example 255, N-(2-(2,4-difluorobenzyl)-2-fluorobutyl)-6-oxo-1,6-dihydropyrimidine-2-carboxamide] | 6.45 | 7.29 | –
Cn1nc(C(=O)NCC(C)(C)Cc2ccccc2Br)[nH]c1=O [Example 36, N-(3-(2-bromophenyl)-2,2-dimethylpropyl)-1-methyl-5-oxo-4,5-dihydro-1H-1,2,4-triazole-3-carboxamide] | 5.28 | 7.05 | –
Cc1ncc(C(=O)NCC2(Cc3ccccc3)CCC2)cc1O [Example 3, N-((1-benzylcyclobutyl)methyl)-5-hydroxy-6-methylnicotinamide] | 6.02 | 6.89 | –

SMILES | mPTP Rat liver pIC50 (mPTP [1]) | mPTP Rat brain pIC50 (mPTP [2]) | mPTP rat brain mitochondria pIC50 (mPTP [2]; Fluo5N fluorescence at 10 min after 75 μM Ca2+)
Cc1cnc(C(=O)NCC(C)(Cc2ccc(F)cc2F)C2CC2)[nH]c1=O (centres unmarked) [compound 266] | 5.95 | 7.04 | –
CC(c1ccc(F)cc1F)[C@@H](CNC(=O)c1nn(C)c(=O)[nH]1)C1CC1 (some centres unmarked) [Example 238] | 5.15 | 6.21 | –
CC(c1ccc(F)cc1F)[C@@H](CNC(=O)c1nn(C)c(=O)[nH]1)C1CC1 (single isomer, unassigned) [Example 237] | 6.56 | 7.46 | –
CC[C@@H](Cc1ccc(F)cc1F)C(C)NC(=O)c1nn(C)c(=O)[nH]1 (single isomer, unassigned) [Example 224] | 4.52 | 5.04 | –
CC[C@H](CNC(=O)c1nn(C)c(=O)[nH]1)Cc1ccc(F)cc1F [Example 98, (S)—N-(2-(2,4-Difluorobenzyl)butyl)-1-methyl-5-oxo-4,5-dihydro-1H-1,2,4-triazole-3-carboxamide] | 6.59 | 7.78 | –
CC(CNC(=O)c1noc(=O)[nH]1)(Cc1ccc(F)cc1F)C1CC1 (single isomer, unassigned) [Example 274] | 6.85 | 8.5 | –
CC(CNC(=O)c1cc(O)no1)(Cc1ccc(F)cc1)C1CC1 (single isomer, unassigned) [Example 271] | 6.83 | 7.59 | –
Cn1nc(C(=O)NCC2(Cc3ccc(F)cc3F)CCCO2)[nH]c1=O (single isomer, unassigned) [Example 229] | 6.32 | 6.83 | –
O=C(NCC1(Cc2ccccc2)CCC1)c1nccc(=O)[nH]1 [Example 7, N-((1-benzylcyclobutyl)methyl)-6-oxo-1,6-dihydropyrimidine-2-carboxamide] | 5.97 | 7.42 | –
Cn1nc(C(=O)N2CCC(c3ccccc3)CC2)[nH]c1=O [Reference Example 115, 2-methyl-5-(4-phenylpiperidine-1-carbonyl)-2,4-dihydro-3H-1,2,4-triazol-3-one] | <4.57 | <4.52 | –
CC(CNC(=O)c1noc(=O)[nH]1)(Cc1ccc(F)cc1)C1CC1 (single isomer, unassigned) [Example 275, N-(2-cyclopropyl-3-(4-fluorophenyl)-2-methylpropyl)-5-oxo-4,5-dihydro-1,2,4-oxadiazole-3-carboxamide] | 6.75 | 8.57 | highest activity
O=C(NCC1(Cc2ccc(F)cc2F)CCC1)c1noc(=O)[nH]1 [Example 205] | 6.15 | 7.38 | –
CC(CNC(=O)c1ncc(F)c(=O)[nH]1)(Cc1ccc(F)cc1F)C1CC1 (single isomer, unassigned) [Example 257, N-[2-cyclopropyl-3-(2,4-difluorophenyl)-2-methylpropyl]-5-fluoro-4-oxo-3H-pyrimidine-2-carboxamide] | 6.82 | 8.37 | –
O=C(NCC1(Cc2ccccc2)CCC1)c1cncc(O)n1 [Example 2, N-((1-benzylcyclobutyl)methyl)-6-hydroxypyrazine-2-carboxamide] | 5.64 | 6.95 | –
CC(C)[C@H](CNC(=O)c1nn(C)c(=O)[nH]1)Cc1ccccc1 (single isomer, unassigned) [Example 46B] | 6.97 | 7.68 | –
O=C(NCC1(Cc2cc(F)ccc2F)CCC1)c1nccc(=O)[nH]1 [Example 146] | 6.85 | 7.62 | –
CC(CNC(=O)c1ncc(F)c(=O)[nH]1)(Cc1ccc(F)cc1)C1CC1 (single isomer, unassigned) [Example 262, N-[2-cyclopropyl-3-(4-fluorophenyl)-2-methylpropyl]-5-fluoro-4-oxo-3H-pyrimidine-2-carboxamide] | 6.00 | 7.45 | –
